Results on one compound are retold here after EP2902035B1, “Cell-permeable peptide inhibitors of the JNK signal transduction pathway for use in the treatment of inflammatory eye diseases” (Xigen Inflammation Ltd., priority 2010, dated 2012).

One series concerns healthy eyes. More on the design: species or system Lewis rats. Conditions: rat, in vivo. The protocol:
For immunohistochemistry, eyeballs were collected and fixed for 1h at room temperature in phosphate buffered saline (PBS) containing 4% paraformaldehyde before being rinsed overnight in PBS. The next day, samples were embedded and frozen in optimal cutting-temperature (OCT) compound (Tissue-Tek®, Sakura Finetek, Zoeterwoude, Netherland) and stored at -80°C. Frozen antero-posterior sections of eyes (10 µm thick) were performed at the optic nerve level using a cryostat (Leica CM 3050S, Rueil-Malmaison, France) and mounted on super-frost slides for immunohistochemical analysis.
A second set of experiment was designed to evaluate the anti-inflammatory effect of the JNK-inhibitor (poly-)peptide of SEQ ID NO: 11 at the cellular and tissue level as well as the biodistribution of this molecule 24 hours after administration. Rats were randomized into 11 experimental groups. 6 groups of rats with uveitis: untreated uveitic rats, rats injected intravenously with NaCl or the JNK-inhibitor (poly-)peptide of SEQ ID NO: 11 and rats injected intravitreously with the vehicle, the JNK-inhibitor (poly-)peptide of SEQ ID NO: 11 or dexamethasone. The 5 additional groups without uveitis were: untreated healthy rats, rats treated by NaCl IV or the JNK-inhibitor (poly-)peptide of SEQ ID NO: 11 IV and rats injected IVT with NaCl or the JNK-inhibitor (poly-)peptide of SEQ ID NO: 11. […]

For a further series, the system named is iNOS mRNA. Kind of series: iNOS expression in ocular tissues by semi-quantitative PCR in EIU. It is filed as in vivo, Lewis rats. Conditions: retinas. The protocol: Retinas and RPE/choroid/sclera complexes were also collected at 24 hours to analyze iNOS mRNA levels by RT-PCR and c-Jun phosphorylation state by Western-Blot. Tissues were collected only from eyes treated by IV (intravenous) injection of vehicle, IV injection of the JNK-inhibitor (poly-)peptide of SEQ ID NO: 11, IVT (intravitreal) injection of vehicle and IVT injection of the JNK-inhibitor (poly-)peptide of SEQ ID NO: 11 (n=2 eyes per condition collected from separate rats). Eyes were selected so that their EIU clinical score was representative of the mean of the experimental group they belong to, i.e 3 for eyes treated by IV and IVT injection of vehicle and 2 for eyes treated by IV or IVT injection of the JNK-inhibitor (poly-)peptide of SEQ ID NO: 11.
Two eyes per group were used for this analysis. Immediately after dissection, retinas extracted from each eye were separately snap frozen and stored at -80°C until use. Total RNA was extracted from tissues (RNeasy minikit, Qiagen, Courtaboeuf, France) according to the manufacturer's instructions. […] PCR fragments (162 bp for GAPDH and 657 bp for iNOS) were analyzed by 2.5% agarose gel electrophoresis and visualized by ethidium bromide staining under UV light. The relative band intensity for iNOS was calculated in comparison to that for GAPDH after densitometry analysis (ImageJ software).

A further series has as its system iNOS positive cells. The series is described as follows: Immunohistochemistry of iNOS on eye sections in EIU. Type of series: in vivo, Lewis rats. Conditions: IV or IVT injection compared to control eyes, 24h. The protocol:
A second set of experiment was designed to evaluate the anti-inflammatory effect of the JNK-inhibitor (poly-)peptide of SEQ ID NO: 11 at the cellular and tissue level as well as the biodistribution of this molecule 24 hours after administration. Rats were randomized into 11 experimental groups. 6 groups of rats with uveitis: untreated uveitic rats, rats injected intravenously with NaCl or the JNK-inhibitor (poly-)peptide of SEQ ID NO: 11 and rats injected intravitreously with the vehicle, the JNK-inhibitor (poly-)peptide of SEQ ID NO: 11 or dexamethasone. The 5 additional groups without uveitis were: untreated healthy rats, rats treated by NaCl IV or the JNK-inhibitor (poly-)peptide of SEQ ID NO: 11 IV and rats injected IVT with NaCl or the JNK-inhibitor (poly-)peptide of SEQ ID NO: 11. Three eyes from separate rats were collected per group and used for immunohistochemistry. To characterize the cellular infiltrate, sections were double-stained with ED1 and iNOS. […] After staining nuclei with DAPI (Sigma-Aldrich, Saint-Quentin Fallavier, France), sections were mounted in PBS/Glycerol (1/1) and observed by fluorescence photomicroscopy (FXA, Microphot, Nikon, Melville, USA). […] ED1 positive cells and polymorphonuclear cells, identified by the shape of their nuclei stained with DAPI, were quantified on histological sections. […] Results were expressed as mean ± standard error of the mean (SEM).

SMILES strings stand for the structures.

As for `CC(C)C[C@@H](NC(=O)[C@@H](Cc1ccccc1)NC(=O)[C@H]1CCCN1C(=O)[C@@H](CCC(N)=O)NC(=O)[C@H](NC(=O)[C@H]1CCCN1C(=O)[C@@H](CCCNC(=N)N)NC(=O)[C@@H](CO)NC(=O)[C@@H](CCC(N)=O)NC(=O)[C@H](N)CC(=O)O)C(C)C)C(=O)N[C@H](CC(N)=O)C(=O)N[C@H](CC(C)C)C(=O)N[C@@H](C(=O)N[C@@H](C(=O)N1CCC[C@@H]1C(=O)N[C@H](CCCNC(=N)N)C(=O)N[C@H](CCCCN)C(=O)N1CCC[C@@H]1C(=O)N[C@H](CCCNC(=N)N)C(=O)N1CCC[C@@H]1C(=O)N1CCC[C@@H]1C(=O)N[C@H](CCCNC(=N)N)C(=O)N[C@H](CCCNC(=N)N)C(=O)N[C@H](CCCNC(=N)N)C(=O)N[C@H](CCC(N)=O)C(=O)N[C@H](CCCNC(=N)N)C(=O)N[C@H](CCCNC(=N)N)C(=O)N[C@H](CCCCN)C(=O)N[C@H](CCCCN)C(=O)N[C@H](CCCNC(=N)N)C(=O)NCC(=O)O)[C@H](C)O)[C@H](C)O` [SEQ ID NO: 11], in the series on healthy eyes, the “inflammatory cell infiltration in healthy eyes” value is reported as “No inflammatory cell infiltration”. Also, the “Levels of iNOS mRNA (relative band intensity in comparison to GAPDH)” value with iNOS mRNA (24 hours after IV) was found to be 0.40 ± 0.11; with iNOS mRNA (24 hours after IVT injection), 0.27 ± 0.09. The “number of iNOS positive cells” value with iNOS positive cells was “reduced”.
